The record followed here is patent US20240366649A1, “4-ETHYNYL-3-HYDROXY-TETRAHYDROFURANYL-ADENINE PHOSPHORAMIDATES AND RELATED COMPOUNDS AND THEIR USE IN TREATING MEDICAL CONDITIONS” (ROME THERAPEUTICS, INC., priority 2021, published 2024).

Some results are limits rather than exact numbers.

Type in all cases: cell-based
Experiment [1] concerns Esophageal cancer KYSE-410 cells. The experiment in a line: Cancer cell viability assay with 3D cell colonies (CellTiter-Glo), KYSE-410. The settings on record: Homo sapiens, 168 h; KYSE-410, 3D methylcellulose colonies, 7 days. On the procedure:
(§1) Cancer cell lines were cultured in the following media: • Ovarian cancer OVCAR-8 cells—RPMI media containing 10% FBS • Ovarian cancer SK-OV-3 cells—McCoy's 5a media containing 10% FBS • Ovarian cancer SW756 cells—L-15 (100% air)+10% FBS • Esophageal cancer TE-1 cells—RPMI-1640+10% FBS • Esophageal cancer KYSE-410 cells—RPMI-1640+5˜10% FBS • Esophageal cancer KYSE-70 cells—RPMI-1640+10% h.i.FBS. • Pharyngeal cancer FaDu cells—MEM+0.01 mM NEAA+10% FBS
(§2) Cell colony formation was tested using a 3D methylcellulose-based CellTiter-Glo (CTG) viability assay (Cat. No: G7573, Promega). Briefly, cells were inoculated into 96-well plates (at 1,500 cells per well) into a solution of 0.65% methylcellulose in growth media and incubated overnight at 37° C. in 5% CO2. The next day, serially diluted test compound (islatravir, 4′-ethynyl-2-fluoro-2′-deoxyadenosine) or positive control (cisplatin, Cat. No. 6J015A89, Qilu Pharma) were added at the indicated concentrations, and the cells were incubated for 7 days. On day seven, 100 μL of CTG reagent was added, and the plates were incubated at room temperature for 20 min. Luminescence was read on an Envision Multi Label Reader according to manufacturer's instructions. IC50 values were determined using the following calculation: […]
On the technique in general: In ATP-based viability assays light output follows the ATP content of the culture.

Experiment [2] addresses LINE1 reverse transcriptase (Homo sapiens, UniProt O00370). Kind of experiment: Stable artificial-intron Cis LINE1 reporter assay. Details: expressed in transfected cells. The settings on record: HeLa L1 artificial-intron reporter cells, doxycycline-induced, 72 h, Firefly luciferase activity. An excerpt: A stable HeLa Tet-On 3G (Takara, cat no 631183) cell line expressing a bi-directional inducible LINE1 construct was generated as described in Xie, Y. et al. “Cell division promotes efficient retrotransposition in a stable L1 reporter cell line,” Mobile DNA (2013) 4:10. Single cell clones were screened for high Luciferase expression and the highest expression Firefly expressing clone was chosen for compound testing.
Test compounds were serially diluted in DMSO and spotted in 96-well plates. Subsequently the HeLa L1 artificial-intron reporter cells were plated into the compound-containing wells (8,000 cells/well), and the cells were induced for reporter expression with doxycycline (Sigma cat no D9891) at a final concentration of 500 ng/mL. Luminescence was measured 72 h after plating using the Dual-Glo Luciferase Assay System (Promega cat no E2940) following the manufacturer's instructions. The Firefly Luciferase activity (normalized against its activity in a control well without test compound) was used to report LINE1 activity.

The test system of experiment [3] is Pharyngeal cancer FaDu cells. Kind of experiment: Cancer cell viability assay with 3D cell colonies (CellTiter-Glo), FaDu. The settings on record: Homo sapiens, 168 h, 3D methylcellulose colonies, 7 days. On the procedure:
as §1, §2

Experiment [4] deals with Ovarian cancer OVCAR-8 cells. Kind of experiment: Cancer cell viability assay with 3D cell colonies (CellTiter-Glo), OVCAR-8. The settings on record: Homo sapiens, 168 h; OVCAR-8, 3D methylcellulose colonies, 7 days. On the procedure: as §1, §2
Experiment [5] deals with IFN production in THP1 TREX1 KO cells. Kind of experiment: Cellular assay for altering IFN production in THP1 TREX1 KO cells. The settings on record: FIG. 6-8, % induction versus compound concentration. On the procedure:
THP1-Dual™ KO-TREX1 cells were purchased from Invivogen (cat #thpd-kotrex). The THP1-Dual™ KO-TREX1 cells were cultured in RPMI 1640, 10% heat-inactivated fetal bovine serum, 25 mM HEPES, 10 μg/mL Blasticidin, and […] Zeocin. THP1-Dual™ KO-TREX cells were treated with a dose titration of test compound in the presence of 1 μM 5-aza-2′-deoxycytidine (Sigma, cat #189825). Type 1 Interferon and cell viability were assessed after five days of treatment.
Stock solution of test compound was prepared in DMSO followed by a three-fold dilution in DMSO. Additional 50× dilution was prepared in cell culture media for each dilution. 10 μL of diluted test compound was then added to a 384-well plate.
THP1-Dual™ KO-TREX1 cells were treated with 1 μM 5-aza-2′-deoxycytidine. THP1-Dual™ KO-TREX1 cells (50 μL) were added to each well of the 384-well plate containing test compound titration at 10,000 cells/well. Cells were incubated at 37° C., 5% CO2 in a humidified incubator for five days. On day five, 20 μL of cell supernatant was transferred to a 384-well, white-walled plate, followed by addition to each well of 50 μL of QUANTI-LUC solution containing stabilizer. Luminescence was detected on a plate reader according to manufacturer's instructions.
For certain compounds, the assay was run in a 96-well format, with the following modifications: • 190 μL, instead of 50 μL, of cells were added to each well, to provide 50,000 cells/well, instead of 10,000 cells/well, • Cells were incubated for 6 days, instead of 5 days, • 25 μL, instead of 20 μL, of cell supernatant was added to the white-walled plate for QUANT-LUC treatment; and • 25 μL, instead of 30 μL, of CellTiter-Glo was added to assess cell viability.
Percent inhibition of interferon was calculated using the following analysis: (Average DMSO-Sample)/(Average DMSO-Average 30 μM control reagent)*100. The control reagent for inhibition of interferon was a specific nucleoside reverse-transcriptase inhibitor with molecular weight <600 a.m.u. Percent induction of interferon was calculated using the following analysis: (Sample-Average DMSO)/(10 μM control reagent-Average DMSO)*100. The control reagent for induction of interferon was compound 8 (4′-ethynyl-2-chloro-2′-deoxyadenosine).

Experiment [6] relates to Ovarian cancer SK-OV-3 cells. The experiment in a line: Cancer cell viability assay with 3D cell colonies (CellTiter-Glo), SK-OV-3. The settings on record: Homo sapiens, 168 h; SK-OV-3, 3D methylcellulose colonies, 7 days. On the procedure:
as §1, §2

The test system of experiment [7] is Ovarian cancer SW756 cells. Kind of experiment: Cancer cell viability assay with 3D cell colonies (CellTiter-Glo), SW756. The settings on record: Homo sapiens, 168 h; SW756, 3D methylcellulose colonies, 7 days. On the procedure:
as §1, §2

Experiment [8] has as its system Esophageal cancer KYSE-70 cells. The experiment in a line: Cancer cell viability assay with 3D cell colonies (CellTiter-Glo), KYSE-70. The settings on record: Homo sapiens, 168 h; KYSE-70, 3D methylcellulose colonies, 7 days. On the procedure:
as §1, §2

LINE1 reverse transcriptase, sequence (O00370 whole entry, looked up): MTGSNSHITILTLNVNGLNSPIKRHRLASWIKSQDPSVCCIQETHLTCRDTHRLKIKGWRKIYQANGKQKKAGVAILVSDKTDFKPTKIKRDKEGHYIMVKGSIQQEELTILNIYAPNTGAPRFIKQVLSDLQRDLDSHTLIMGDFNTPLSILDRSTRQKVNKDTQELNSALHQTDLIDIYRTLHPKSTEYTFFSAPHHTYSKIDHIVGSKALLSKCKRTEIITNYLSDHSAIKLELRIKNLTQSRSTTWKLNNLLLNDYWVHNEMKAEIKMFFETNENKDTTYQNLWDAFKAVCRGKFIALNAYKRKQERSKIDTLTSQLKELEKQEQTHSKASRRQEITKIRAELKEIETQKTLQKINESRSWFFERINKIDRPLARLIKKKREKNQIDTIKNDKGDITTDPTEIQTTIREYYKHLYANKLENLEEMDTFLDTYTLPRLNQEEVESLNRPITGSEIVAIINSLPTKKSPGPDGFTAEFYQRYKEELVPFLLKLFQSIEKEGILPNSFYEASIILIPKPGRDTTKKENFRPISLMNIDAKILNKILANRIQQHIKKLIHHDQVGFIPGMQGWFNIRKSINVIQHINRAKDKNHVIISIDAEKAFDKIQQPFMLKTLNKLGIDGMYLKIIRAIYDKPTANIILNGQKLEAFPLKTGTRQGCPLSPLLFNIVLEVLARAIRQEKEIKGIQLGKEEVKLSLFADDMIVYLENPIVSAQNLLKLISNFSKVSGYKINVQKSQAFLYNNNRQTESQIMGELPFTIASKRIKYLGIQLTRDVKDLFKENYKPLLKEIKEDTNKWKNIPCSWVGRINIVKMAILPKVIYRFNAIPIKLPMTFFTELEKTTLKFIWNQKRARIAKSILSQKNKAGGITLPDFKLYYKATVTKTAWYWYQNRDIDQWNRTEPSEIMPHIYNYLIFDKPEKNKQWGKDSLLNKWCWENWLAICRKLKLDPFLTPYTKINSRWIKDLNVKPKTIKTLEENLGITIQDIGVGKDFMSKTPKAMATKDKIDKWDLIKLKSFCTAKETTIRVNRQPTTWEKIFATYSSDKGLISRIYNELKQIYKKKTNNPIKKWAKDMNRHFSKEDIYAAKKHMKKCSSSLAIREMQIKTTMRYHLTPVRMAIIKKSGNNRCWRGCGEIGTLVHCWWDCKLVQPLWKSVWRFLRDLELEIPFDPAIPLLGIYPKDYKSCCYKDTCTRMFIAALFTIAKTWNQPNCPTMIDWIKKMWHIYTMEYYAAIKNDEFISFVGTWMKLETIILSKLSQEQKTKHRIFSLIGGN

For the compound `C#C[C@]1(CO)O[C@@H](n2cnc3c(N)nc(F)nc32)C[C@@H]1O` [islatravir, 4′-ethynyl-2-fluoro-2′-deoxyadenosine], the IC50 (usually the concentration at which inhibition is half-maximal) in experiment [1] was over 30 µM; in experiment [2] it was at most 0.05 µM; in experiment [3], 10 to 30 µM; in experiment [4] it was at most 10 µM; in experiment [6] it was at most 10 µM; in experiment [7] it was over 30 µM. In experiment [8], this compound had an IC50 of 10 to 30 µM. The “change in IFN levels (figure)” value in experiment [5] is given as “induction of IFN”.
